Experiment [1] concerns STAT1 S727 phosphorylation. Nature of the experiment: Western blot of STAT1 S727 phosphorylation in NIH 3T3 cells. The class given is cell-based, murine. Particulars: 1 μM. The procedure:
(§1) Cells were cultured in 60-mm dishes and treated under different conditions before being lysed in RIPA lysis buffer with protease/phosphatase inhibitor cocktail. The protein concentration of extracts was determined using the DC protein assay (Bio-Rad Laboratories). Protein samples (50 μg) were resolved on 4–12% Express-Plus PAGE gels in Tris-MOPS (SDS) running buffer (GenScript, Piscataway, NJ, USA), transferred to PVDF membranes and incubated at 4 °C overnight with primary antibodies STAT1 (sc-592, Santa Cruz Biotechnology, Dallas, TX, USA) and pSTAT1-Ser727 (#8826, Cell Signaling Technology, Danvers, MA, USA) followed by anti-rabbit (NA934, GE Healthcare, Chicago, IL, USA) secondary antibodies. Bands were visualized with Western Lighting Plus ECL detection reagent (Perkin Elmer, Waltham, MA, USA) using ChemiDoc Touch™ (Bio-Rad). Images were analyzed using ImageLab (Bio-Rad) and ImageJ (version 1.52p) software for protein signal quantification.

For another experiment, the target named is T1, GSK3A (Homo sapiens, UniProt P49840).
T1 construct: purchased DiscoverX
T1 sequence (P49840 whole entry): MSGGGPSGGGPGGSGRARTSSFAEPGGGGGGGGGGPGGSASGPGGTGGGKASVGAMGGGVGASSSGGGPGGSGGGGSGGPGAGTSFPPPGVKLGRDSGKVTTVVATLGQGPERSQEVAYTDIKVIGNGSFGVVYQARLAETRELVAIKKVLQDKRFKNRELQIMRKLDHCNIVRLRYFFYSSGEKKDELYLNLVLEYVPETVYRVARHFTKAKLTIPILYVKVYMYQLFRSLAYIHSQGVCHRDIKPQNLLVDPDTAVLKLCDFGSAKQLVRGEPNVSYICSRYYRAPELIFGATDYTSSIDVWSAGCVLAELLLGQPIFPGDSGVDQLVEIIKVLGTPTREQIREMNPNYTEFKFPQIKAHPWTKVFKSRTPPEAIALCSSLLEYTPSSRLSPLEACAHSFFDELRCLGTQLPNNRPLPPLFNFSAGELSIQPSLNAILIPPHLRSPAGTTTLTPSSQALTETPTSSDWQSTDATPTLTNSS
The experiment is described as follows: KdELECT Kd determination, GSK3A. Particulars: 11-point 3-fold serial dilution, duplicate; read-out: Kd for the inhibition of nucleotide binding, GSK3A. The procedure:
(§2) The screening platform employs an active site-directed competition binding assay to quantitatively measure interactions between test compounds and targeting kinases. […] To determine dissociation constants (Kds) of compounds on different targets, an 11-point 3-fold serial dilution of each test compound was tested in independent duplicate assays.
(§3) This assay has been previously used with many CDK8/19 inhibitors, including cortistatin A and its equipotent analog dCA [20, 21]; 15w.

A further experiment has as its target PIKFYVE (Homo sapiens, UniProt Q9Y2I7). The experiment is described as follows: KdELECT Kd determination, PIKFYVE. Particulars: 11-point 3-fold serial dilution, duplicate; read-out: Kd for the inhibition of nucleotide binding, PIKFYVE. Details: purchased DiscoverX. The procedure: as §2, §3
Experiment [2] relates to STAT1 S727 phosphorylation. Nature of the experiment: Western blot of STAT1 S727 phosphorylation in 293-WT cells. Particulars: 1 μM. The class given is cell-based, human. The procedure:
as §1

The target of another experiment is T2, JNK1 (MAPK8) (Homo sapiens, UniProt P45983).
T2 construct: purchased DiscoverX
T2 sequence (P45983 whole entry): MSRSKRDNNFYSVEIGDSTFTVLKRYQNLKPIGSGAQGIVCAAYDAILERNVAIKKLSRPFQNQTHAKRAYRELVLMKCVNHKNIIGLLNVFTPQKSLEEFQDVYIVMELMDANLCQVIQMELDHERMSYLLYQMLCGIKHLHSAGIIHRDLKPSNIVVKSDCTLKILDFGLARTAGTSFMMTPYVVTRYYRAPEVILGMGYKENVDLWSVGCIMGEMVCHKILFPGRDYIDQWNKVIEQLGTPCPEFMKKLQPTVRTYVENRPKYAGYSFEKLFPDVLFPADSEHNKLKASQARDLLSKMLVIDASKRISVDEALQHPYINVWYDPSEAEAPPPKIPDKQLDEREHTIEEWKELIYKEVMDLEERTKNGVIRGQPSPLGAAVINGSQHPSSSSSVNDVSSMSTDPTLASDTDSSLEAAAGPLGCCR
Nature of the experiment: KdELECT Kd determination, JNK1. Particulars: 11-point 3-fold serial dilution, duplicate; read-out: Kd for the inhibition of nucleotide binding, JNK1 (MAPK8). The procedure:
as §2, §3

A further experiment concerns the target T3, MAP4K2 (Homo sapiens, UniProt Q12851).
T3 construct: purchased DiscoverX
T3 sequence (Q12851 1-820): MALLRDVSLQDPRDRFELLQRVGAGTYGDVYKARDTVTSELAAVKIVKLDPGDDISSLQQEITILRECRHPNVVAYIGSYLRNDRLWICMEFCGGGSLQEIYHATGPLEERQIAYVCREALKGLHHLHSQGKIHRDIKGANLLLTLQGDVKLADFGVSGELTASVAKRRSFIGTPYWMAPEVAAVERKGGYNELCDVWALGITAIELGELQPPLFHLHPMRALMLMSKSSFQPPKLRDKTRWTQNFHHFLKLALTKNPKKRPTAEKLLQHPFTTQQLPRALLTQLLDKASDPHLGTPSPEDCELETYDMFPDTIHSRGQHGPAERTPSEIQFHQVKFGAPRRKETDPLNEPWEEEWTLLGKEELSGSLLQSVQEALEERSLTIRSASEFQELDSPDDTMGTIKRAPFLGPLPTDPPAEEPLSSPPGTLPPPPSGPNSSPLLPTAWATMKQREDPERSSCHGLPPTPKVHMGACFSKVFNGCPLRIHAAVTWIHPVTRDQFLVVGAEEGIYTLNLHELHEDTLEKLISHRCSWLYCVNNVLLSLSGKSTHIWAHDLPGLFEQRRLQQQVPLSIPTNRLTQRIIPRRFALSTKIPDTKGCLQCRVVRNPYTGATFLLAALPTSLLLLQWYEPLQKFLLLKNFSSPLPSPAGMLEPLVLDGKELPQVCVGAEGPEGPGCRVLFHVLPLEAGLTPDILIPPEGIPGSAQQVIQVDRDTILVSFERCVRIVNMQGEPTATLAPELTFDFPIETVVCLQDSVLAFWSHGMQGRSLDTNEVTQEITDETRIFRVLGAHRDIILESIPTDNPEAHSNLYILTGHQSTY
The experiment is described as follows: KdELECT Kd determination, MAP4K2. Particulars: 11-point 3-fold serial dilution, duplicate; read-out: Kd for the inhibition of nucleotide binding, MAP4K2. The procedure: as §2, §3

Experiment [3] has as its system STAT1 S727 phosphorylation. Nature of the experiment: Basal STAT1 S727 phosphorylation in rat neurons in culture. The format is cell-based. Particulars: not shown.
Another experiment concerns the target T4, STK16 (Homo sapiens, UniProt O75716).
T4 construct: purchased DiscoverX
The experiment is described as follows: KdELECT Kd determination, STK16. Particulars: 11-point 3-fold serial dilution, duplicate; read-out: Kd for the inhibition of nucleotide binding, STK16. The procedure: as §2, §3

The target in experiment [4] is T5, CDK8 (Homo sapiens, UniProt P49336). Nature of the experiment: KdELECT Kd determination, CDK8. The class given is binding. Details: purchased DiscoverX. Particulars: 11-point 3-fold serial dilution, duplicate; read-out: Kd for the inhibition of nucleotide binding, CDK8. The procedure: To determine dissociation constants (Kds) of compounds on different targets, an 11-point 3-fold serial dilution of each test compound was tested in independent duplicate assays.
Target sequence in this assay (P49336 whole entry): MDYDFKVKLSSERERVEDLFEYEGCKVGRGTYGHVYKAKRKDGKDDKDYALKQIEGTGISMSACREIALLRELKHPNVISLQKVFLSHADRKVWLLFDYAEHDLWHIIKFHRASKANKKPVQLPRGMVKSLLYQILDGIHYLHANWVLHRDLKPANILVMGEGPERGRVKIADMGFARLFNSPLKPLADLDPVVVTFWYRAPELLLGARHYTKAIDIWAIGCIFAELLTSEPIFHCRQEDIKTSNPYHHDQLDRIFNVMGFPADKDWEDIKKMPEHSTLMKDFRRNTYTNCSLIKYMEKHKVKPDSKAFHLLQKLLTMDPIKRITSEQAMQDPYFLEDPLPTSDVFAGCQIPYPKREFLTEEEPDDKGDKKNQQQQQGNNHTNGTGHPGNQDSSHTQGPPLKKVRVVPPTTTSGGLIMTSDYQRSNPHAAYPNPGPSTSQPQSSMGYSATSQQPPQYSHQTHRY

For experiment [5], the system named is STAT1 S727 phosphorylation. On the set-up: method as in patent application US 2017/0115308A1. Particulars: ref patent application US 2017/0115308A1; cited from earlier work.
Experiment [6] deals with T5, CDK8. Nature of the experiment: Cell-based QPCR assay of CDK8/19-dependent gene expression, HEK293 CDK19 single-knockout (19KO) cells. On the set-up: CDK19 single-knockout (19KO); endogenous in cells; host or cells: HEK293 CDK19 knockout (19KO). Particulars: HEK293 19KO, 1 h pre-treatment, then 10 ng/mL TNFα 2 h.
Target sequence in this assay (P49336 whole entry): as above
Target sequence in this assay (P24863 whole entry partner): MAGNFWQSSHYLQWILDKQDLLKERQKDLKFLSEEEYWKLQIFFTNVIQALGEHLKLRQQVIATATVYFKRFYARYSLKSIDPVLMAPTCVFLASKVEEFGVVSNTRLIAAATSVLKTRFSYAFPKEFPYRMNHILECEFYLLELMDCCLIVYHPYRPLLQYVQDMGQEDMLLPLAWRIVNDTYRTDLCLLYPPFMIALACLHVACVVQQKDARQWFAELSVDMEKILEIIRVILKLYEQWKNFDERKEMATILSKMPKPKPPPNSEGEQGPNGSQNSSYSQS
Description: CDK8/CDK19 single knockout and double knockout derivatives of human embryonic kidney (HEK) 293 cells (ATCC CRL-1573) were generated as previously described [18]. All cells were cultured in DMEM (high-glucose) media supplemented with 10% fetal bovine serum (FBS) and Penicillin-Streptomycin-Glutamine (1×) at 37 °C with 5% CO2 and routinely confirmed to be free of mycoplasma.
Total RNA was extracted using RNAeasy Mini Kit (Qiagen, Germantown, MD, USA) and 1 µg of total RNA was used to generate cDNA using iScript cDNA synthesis kit (Bio-Rad Laboratories, Hercules, CA, USA). Gene expression was quantified using iTaq Universal SYBR green super mix using CFX384 Real-Time System (Bio-Rad).
The IC50 values for different inhibitors in inhibiting CDK8/19-dependent gene expression were calculated using a three-parameter least square (ordinary) fitting method with GraphPad Prism 7.0 (GraphPad Software, San Diego, CA, USA). The Kruskal–Wallis non-parametric ANOVA was used to compare gene expression levels under no-inhibitor conditions between wild-type cells and knockout derivatives (8KO, 19KO and dKO) with GraphPad Prism 7.0.
Cells were pre-treated with different concentrations of CDK8/19 inhibitors for 1 h and then 10 ng/mL TNFα, an inducer of transcription factor NFκB, which is potentiated by CDK8/19 [5], was added for 2 h before RNA extraction. QPCR was carried out to quantify CDK8/19-regulated expression of NFκB-inducible genes CXCL1 and CXCL8 and the basal expression of MYC.
The next experiment concerns CDK8/19. Nature of the experiment: Cell-based QPCR assay of CDK8/19-dependent gene expression, HEK293 parental (WT) cells. Particulars: for IC50: HEK293 WT, 1 h pre-treatment, then 10 ng/mL TNFα 2 h, QPCR. Details: species or system human.

Read-outs that look alike come from different tables or passages of the source.

PIKFYVE, sequence (Q9Y2I7 whole entry): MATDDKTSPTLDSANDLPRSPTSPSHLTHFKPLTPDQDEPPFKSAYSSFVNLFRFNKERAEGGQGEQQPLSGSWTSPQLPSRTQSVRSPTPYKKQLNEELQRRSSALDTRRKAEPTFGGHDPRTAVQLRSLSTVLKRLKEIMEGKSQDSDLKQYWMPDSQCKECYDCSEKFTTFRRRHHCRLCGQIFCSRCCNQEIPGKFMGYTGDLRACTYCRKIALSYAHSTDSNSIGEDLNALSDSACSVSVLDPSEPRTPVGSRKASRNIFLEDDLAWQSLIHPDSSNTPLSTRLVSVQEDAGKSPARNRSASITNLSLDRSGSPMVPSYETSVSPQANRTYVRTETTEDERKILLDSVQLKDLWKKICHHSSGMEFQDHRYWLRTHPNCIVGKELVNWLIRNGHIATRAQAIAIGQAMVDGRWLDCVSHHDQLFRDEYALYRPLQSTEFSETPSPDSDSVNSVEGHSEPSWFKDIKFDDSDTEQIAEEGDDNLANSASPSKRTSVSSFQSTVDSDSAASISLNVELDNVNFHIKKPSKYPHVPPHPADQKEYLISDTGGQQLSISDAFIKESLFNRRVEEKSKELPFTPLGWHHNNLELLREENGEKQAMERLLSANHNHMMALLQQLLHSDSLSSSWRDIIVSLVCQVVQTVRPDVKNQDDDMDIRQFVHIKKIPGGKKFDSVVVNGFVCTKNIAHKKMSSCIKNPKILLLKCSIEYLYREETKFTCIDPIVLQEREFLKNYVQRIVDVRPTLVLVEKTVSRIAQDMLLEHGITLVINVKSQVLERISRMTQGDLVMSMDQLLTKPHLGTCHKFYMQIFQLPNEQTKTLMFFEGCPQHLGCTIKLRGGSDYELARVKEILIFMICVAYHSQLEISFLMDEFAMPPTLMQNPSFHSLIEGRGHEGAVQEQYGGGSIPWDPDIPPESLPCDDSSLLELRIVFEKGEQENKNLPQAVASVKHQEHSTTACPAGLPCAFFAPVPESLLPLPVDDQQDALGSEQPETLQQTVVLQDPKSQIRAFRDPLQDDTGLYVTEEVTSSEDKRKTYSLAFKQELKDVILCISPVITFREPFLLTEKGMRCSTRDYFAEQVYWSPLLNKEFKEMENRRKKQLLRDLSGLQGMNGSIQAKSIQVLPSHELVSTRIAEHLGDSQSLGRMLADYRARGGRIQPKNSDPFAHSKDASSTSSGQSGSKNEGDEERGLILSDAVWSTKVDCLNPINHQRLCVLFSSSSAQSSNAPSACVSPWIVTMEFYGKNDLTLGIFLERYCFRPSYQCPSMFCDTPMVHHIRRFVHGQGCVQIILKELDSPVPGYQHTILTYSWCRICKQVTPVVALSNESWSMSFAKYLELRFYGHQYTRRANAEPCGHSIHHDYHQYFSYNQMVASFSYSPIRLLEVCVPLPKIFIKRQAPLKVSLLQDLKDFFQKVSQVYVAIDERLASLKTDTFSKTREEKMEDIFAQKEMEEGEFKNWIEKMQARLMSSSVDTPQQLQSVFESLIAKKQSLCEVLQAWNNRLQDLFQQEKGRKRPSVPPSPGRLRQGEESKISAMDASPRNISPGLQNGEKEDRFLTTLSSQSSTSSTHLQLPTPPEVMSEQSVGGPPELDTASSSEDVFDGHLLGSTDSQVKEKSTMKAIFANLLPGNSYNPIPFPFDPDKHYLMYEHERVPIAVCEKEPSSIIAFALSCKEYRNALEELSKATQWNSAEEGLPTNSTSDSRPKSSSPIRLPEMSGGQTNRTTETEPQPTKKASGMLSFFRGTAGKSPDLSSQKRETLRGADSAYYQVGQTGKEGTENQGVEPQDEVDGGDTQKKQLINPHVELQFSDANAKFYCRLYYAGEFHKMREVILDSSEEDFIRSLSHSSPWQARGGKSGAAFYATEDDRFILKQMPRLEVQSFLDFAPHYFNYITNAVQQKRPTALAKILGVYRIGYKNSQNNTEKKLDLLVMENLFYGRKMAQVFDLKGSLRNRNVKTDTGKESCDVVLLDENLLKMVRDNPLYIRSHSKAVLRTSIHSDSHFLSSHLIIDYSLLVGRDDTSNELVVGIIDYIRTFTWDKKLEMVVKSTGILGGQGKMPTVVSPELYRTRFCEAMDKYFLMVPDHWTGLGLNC
T4 sequence (O75716 whole entry): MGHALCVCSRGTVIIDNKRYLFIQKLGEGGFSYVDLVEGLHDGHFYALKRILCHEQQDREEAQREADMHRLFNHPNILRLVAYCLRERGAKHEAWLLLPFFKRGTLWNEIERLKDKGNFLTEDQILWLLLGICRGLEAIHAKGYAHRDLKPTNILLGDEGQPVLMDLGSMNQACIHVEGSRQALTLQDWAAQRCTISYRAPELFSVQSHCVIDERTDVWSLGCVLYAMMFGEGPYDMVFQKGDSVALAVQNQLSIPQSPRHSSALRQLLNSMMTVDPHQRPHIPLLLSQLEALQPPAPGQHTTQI

Usually Kd stands for the concentration at which binding is half-saturated. In general, IC50 refers to the concentration needed to halve the response being measured. `CN1CCN(C(=O)c2ccc3cc(CCNc4ncnc5ccc(C#N)cc45)ccc3c2)CC1` [Senexin B]: in experiment [1] (serum starvation 24 h), the “Effect on STAT1 S727 phosphorylation, serum-starved NIH 3T3 cells” value is on record as “inhibits STAT1 S727 phosphorylation”. Moreover, the “Effect on STAT1 S727 phosphorylation, NIH 3T3 cells after addition of serum” value in experiment [1] (serum stimulation 1 h) is “only a minor effect”. Besides, the Kd on GSK3A is more than 30000 nM; on PIKFYVE, 14000 nM; at JNK1 (MAPK8), 7200 nM; on MAP4K2, 570 nM; on STK16, 2200 nM; on CDK8 [4] it was 59 nM. Moreover, the “Effect on STAT1 S727 phosphorylation, WT 293 cells under standard conditions and serum-starved” value in experiment [2] is on record as “inhibits STAT1 S727 phosphorylation”. Moreover, the “Effect on serum-stimulated increase of STAT1 S727 phosphorylation, WT 293 cells” value in experiment [2] (serum stimulation 1 h) is given as “only weakly affected”. In addition, the “Effect on basal STAT1 S727 phosphorylation in rat neurons in culture” value in experiment [3] was “did not detect any effect”. Besides, the “Effect on basal STAT1 S727 phosphorylation in all the tested tumor cell lines” value in experiment [5] is “inhibited”. In addition, the IC50 on CDK8 [6] (read-out: IC50, CXCL1 mRNA expression, 19KO) came out at 70 nM; on CDK8 [6] (read-out: IC50, CXCL8 mRNA expression, 19KO) it was 71 nM; on CDK8 [6] (read-out: IC50, MYC mRNA expression, 19KO), 51 nM; with CDK8/19 (read-out: IC50, CXCL1 mRNA expression, WT), 68 nM; with CDK8/19 (read-out: IC50, CXCL8 mRNA expression, WT), 81 nM; with CDK8/19 (read-out: IC50, MYC mRNA expression, WT) it was 45 nM. Further, the “Activity in the cell-based assay (WT, 8KO and 19KO cells)” value with CDK8/19 was “an order of magnitude less active”.

(Values after paper PMC6912361, “Systemic Toxicity Reported for CDK8/19 Inhibitors CCT251921 and MSC2530818 Is Not Due to Target Inhibition” (Cells, 2019).)
